Test results taken from US9556159B2, “Renin inhibitor” (MITSUBISHI TANABE PHARMA CORPORATION, priority 2012, dated 2017).

Target: T1, Recombinant human renin (Homo sapiens, UniProt P00797)
T1 sequence (P00797 67-406): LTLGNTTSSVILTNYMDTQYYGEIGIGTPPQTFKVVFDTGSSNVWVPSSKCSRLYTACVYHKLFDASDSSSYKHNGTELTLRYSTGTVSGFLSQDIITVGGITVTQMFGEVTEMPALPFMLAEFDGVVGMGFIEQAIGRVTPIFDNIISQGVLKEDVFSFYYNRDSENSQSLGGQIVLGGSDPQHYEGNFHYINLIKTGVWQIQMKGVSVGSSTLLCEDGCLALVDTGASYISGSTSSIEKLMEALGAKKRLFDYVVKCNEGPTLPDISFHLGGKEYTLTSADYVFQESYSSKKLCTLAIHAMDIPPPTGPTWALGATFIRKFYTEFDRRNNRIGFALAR
Test: Inhibitory activity against human renin (fluorogenic peptide substrate)
Format: biochemical
Conditions: 50% inhibitory concentration (IC50) against human renin, 37° C. for 1 hour

COC(=O)NCCCn1nc([C@@H](C)N(C(=O)[C@H]2CNCCO2)C2CC2)cc1-c1ncc(C)cc1F [Example 223]
IC50: 0.4 nM

COC(=O)NCCCc1csc([C@@H](C)N(C(=O)[C@H]2CNCCO2)C2CC2)c1 [Example 224]
IC50: 3.1 nM

COC(=O)NCCCc1cc([C@@H](C)N(C(=O)[C@H]2CNCCO2)C2CC2)nn1C(C)C [Example 225]
IC50: 0.5 nM

COC(=O)NCCCc1cc([C@@H](C)N(C(=O)[C@H]2CNCCO2)C2CC2)sc1-c1cccc(C)n1 [Example 226]
IC50: 0.3 nM

COC(=O)NCCCc1cc([C@@H](C)N(C(=O)[C@H]2CNCCO2)C2CC2)sc1-c1ccccn1 [Example 227]
IC50: 0.2 nM

COC(=O)NCCCc1cc([C@@H](C)N(C(=O)[C@H]2CNCCO2)C2CC2)sc1-c1ccc(C)nc1 [Example 228]
IC50: 0.4 nM

COC(=O)NCCCc1cc([C@@H](C)N(C(=O)[C@H]2CNCCO2)C2CC2)sc1-c1ccccc1F [Example 229]
IC50: 0.5 nM

COC(=O)NCCCn1cc([C@@H](C)N(C(=O)[C@H]2CNC[C@@H](C)O2)C2CC2)nc1-c1ccccc1 [Example 230]
IC50: 0.5 nM

COC(=O)NCCCc1cc([C@@H](C)N(C(=O)[C@H]2CNCCO2)C2CC2)nn1-c1ccc(C)cc1 [Example 231]
IC50: 1.2 nM

COCCCCc1cc([C@@H](C)N(C(=O)[C@H]2CNCCO2)C2CC2)nn1-c1ccccc1 [Example 232]
IC50: 0.6 nM

COC(=O)NCCCn1nc([C@@H](C)N(C(=O)[C@H]2CNCCO2)C2CC2)c2c1C(C)(C)CC2 [Example 233]
IC50: 0.3 nM

COC(=O)NCCCn1nc([C@@H](C)N(C(=O)[C@H]2CNCCO2)C2CC2)c(C)c1-c1ncccc1F [Example 234]
IC50: 0.4 nM

COC(=O)NCCCc1cc([C@@H](C)N(C(=O)[C@H]2CNCCO2)C2CC2)sc1-c1ccc(F)cn1 [Example 235]
IC50: 0.1 nM

COC(=O)NCCCc1cc([C@@H](C)N(C(=O)[C@H]2CNCCO2)C2CC2)sc1-c1ncccc1C [Example 236]
IC50: 0.2 nM

CCOc1cc([C@@H](C)N(C(=O)[C@H]2CNCCO2)C2CC2)cc(CCCNC(=O)OC)n1 [Example 237]
IC50: 0.5 nM

COC(=O)NCCCc1cc([C@@H](C)N(C(=O)[C@H]2CNC[C@@H](C)O2)C2CC2)cc(OC)n1 [Example 238]
IC50: 0.6 nM

COC(=O)NCCCn1nc([C@@H](C)N(C(=O)[C@H]2CNC[C@@H](C(F)(F)F)O2)C2CC2)c2ccc(C)nc21 [Example 239]
IC50: 3.1 nM

COC(=O)NCCCc1cc([C@@H](C)N(C(=O)[C@H]2CNCCO2)C2CC2)sc1-c1cnn(C)c1 [Example 240]
IC50: 0.2 nM

COC(=O)NCCCc1cc([C@@H](C)N(C(=O)[C@H]2CNCCO2)C2CC2)sc1-c1cncnc1 [Example 242]
IC50: 0.8 nM

COC(=O)NCCCc1cc([C@@H](C)N(C(=O)[C@H]2CNCCO2)C2CC2)nn1-c1ccccc1OC [Example 243]
IC50: 0.7 nM

COC(=O)NCCCc1c(F)c([C@@H](C)N(C(=O)[C@H]2CNCCO2)C2CC2)nn1-c1ccccc1 [Example 244]
IC50: 1 nM

COC(=O)NCCCn1cc([C@@H](C)N(C(=O)[C@H]2CNC[C@@H](C)O2)C2CC2)nc1C(C)C [Example 245]
IC50: 0.3 nM

COC(=O)NCCCc1cc([C@@H](C)N(C(=O)[C@H]2CNCCO2)C2CC2)sc1C(F)(F)F [Example 246]
IC50: 0.4 nM

COC(=O)NCCCn1nc([C@@H](C)N(C(=O)[C@H]2CNCCO2)C2CC2)nc1-c1ccc(C)cc1 [Example 247]
IC50: 1.3 nM

COC(=O)NCCCn1nc([C@@H](C)N(C(=O)[C@H]2CNCCO2)C2CC2)nc1-c1ccccc1C [Example 248]
IC50: 0.9 nM

COC(=O)NCCCn1nc([C@@H](C)N(C(=O)[C@H]2CN[C@@H](C)CO2)C2CC2)c2ccc(C)nc21 [Example 249]
IC50: 0.5 nM

COC(=O)NCCCn1nc([C@@H](C)N(C(=O)[C@H]2CNC[C@@H](C)O2)C2CC2)c2ccc(C)nc21 [Example 250]
IC50: 0.3 nM

CCOc1ncc([C@@H](C)N(C(=O)[C@H]2CNCCO2)C2CC2)cc1CCCNC(=O)OC [Example 251]
IC50: 0.8 nM

COC(=O)NCCCn1cc([C@@H](C)N(C(=O)[C@H]2CNC[C@@H](C(F)(F)F)O2)C2CC2)c2ncccc21 [Example 252]
IC50: 6.4 nM

COC(=O)NCCCn1nc([C@@H](C)N(C(=O)[C@H]2CNC[C@@H](C(=O)NCc3ccccc3)O2)C2CC2)c2ccc(C)nc21 [Example 253]
IC50: 0.4 nM

COC(=O)NCCCn1nc([C@@H](C)N(C(=O)[C@H]2CNC[C@@H](C(=O)OC)O2)C2CC2)c2ccc(C)nc21 [Example 254]
IC50: 0.5 nM

COC(=O)NCCCn1nc([C@@H](C)N(C(=O)[C@H]2CNC[C@@H](CO)O2)C2CC2)c2ccc(C)nc21 [Example 255]
IC50: 0.4 nM

COC(=O)NCCCn1nc([C@@H](C)N(C(=O)[C@H]2CNC[C@@H](C(=O)N(C)C)O2)C2CC2)c2ccc(C)nc21 [Example 256]
IC50: 3.1 nM

COC(=O)NCCCn1nc([C@@H](C)N(C(=O)[C@H]2CN[C@@H](COCc3ccccc3)CO2)C2CC2)c2ccc(C)nc21 [Example 257]
IC50: 1.3 nM

COC(=O)NCCCn1nc([C@@H](C)N(C(=O)[C@H]2CN[C@@H](CO)CO2)C2CC2)c2ccc(C)nc21 [Example 258]
IC50: 3.2 nM

CNC(=O)[C@@H]1CNC[C@H](C(=O)N(C2CC2)[C@H](C)c2nn(CCCNC(=O)OC)c3nc(C)ccc23)O1 [Example 259]
IC50: 1.2 nM

COC(=O)NCCCc1cc([C@@H](C)N(C(=O)[C@H]2CNCCO2)C2CC2)sc1-c1cc(C(=O)OC)cc(C(F)(F)F)c1 [Example 260]
IC50: 2.6 nM

COC[C@H]1CO[C@@H](C(=O)N(C2CC2)[C@H](C)c2nn(CCCNC(=O)OC)c3nc(C)ccc23)CN1 [Example 261]
IC50: 0.7 nM

COC(=O)NCCCc1cc([C@@H](C)N(C(=O)[C@H]2CNCCO2)C2CC2)sc1-c1cc(C(F)(F)F)ccc1C(=O)OC [Example 262]
IC50: 3.9 nM

COC(=O)NCCCc1cc([C@@H](C)N(C(=O)[C@H]2CNCCO2)C2CC2)sc1-c1cccc(-c2nnn[nH]2)c1 [Example 263]
IC50: 0.2 nM

COC(=O)NCCCc1cc([C@@H](C)N(C(=O)[C@H]2CNCCO2)C2CC2)sc1-c1ccccc1O [Example 264]
IC50: 1.1 nM

COC(=O)NCCCn1nc([C@@H](C)N(C(=O)[C@H]2CN[C@@H](CF)CO2)C2CC2)c2ccc(C)nc21 [Example 265]
IC50: 6.8 nM

COC(=O)NCCCc1cc([C@@H](C)N(C(=O)[C@H]2CN[C@@H](C)CO2)C2CC2)cc(OC)n1 [Example 266]
IC50: 2.7 nM

COC(=O)NCCCc1cc([C@@H](C)N(C(=O)[C@H]2CNCCO2)C2CC2)sc1-c1ccccc1C(=O)OC [Example 268]
IC50: 0.5 nM

COC(=O)NCCCc1cc([C@@H](C)N(C(=O)[C@H]2CNCCO2)C2CC2)sc1-c1ccccc1NS(C)(=O)=O [Example 269]
IC50: 0.3 nM

COC(=O)NCCCc1cc([C@@H](C)N(C(=O)[C@H]2CNCCO2)C2CC2)sc1-c1ccccc1-c1nnn[nH]1 [Example 270]
IC50: 0.5 nM

COC[C@H]1CO[C@@H](C(=O)N(C2CC2)[C@H](C)c2cc(CCCNC(=O)OC)nc(OC)c2)CN1 [Example 271]
IC50: 3 nM

COC(=O)NCCCc1cc([C@@H](C)N(C(=O)[C@H]2CNCCO2)C2CC2)sc1Cc1nnn[nH]1 [Example 272]
IC50: 6.1 nM

CCOC[C@H]1CO[C@@H](C(=O)N(C2CC2)[C@H](C)c2nn(CCCNC(=O)OC)c3nc(C)ccc23)CN1 [Example 273]
IC50: 1 nM

COC(=O)NCCCc1cc([C@@H](C)N(C(=O)[C@H]2CNCCO2)C2CC2)sc1-c1cccc(F)c1O [Example 274]
IC50: 0.5 nM

COC(=O)NCCCc1cc([C@@H](C)N(C(=O)[C@H]2CNCCO2)C2CC2)sc1-c1cc(F)cc(F)c1O [Example 275]
IC50: 0.9 nM

COC(=O)NCCCc1cc([C@@H](C)N(C(=O)[C@H]2CNCCO2)C2CC2)sc1-c1ccccc1-c1n[nH]c(=O)o1 [Example 276]
IC50: 0.5 nM

COC[C@@H]1CNC[C@H](C(=O)N(C2CC2)[C@H](C)c2cn(CCCNC(=O)OC)c(-c3ccc(F)cc3)n2)O1 [Example 277]
IC50: 0.6 nM

COC(=O)NCCCn1nc([C@@H](C)N(C(=O)[C@H]2CN[C@@H](COCC(F)(F)F)CO2)C2CC2)c2ccc(C)nc21 [Example 278]
IC50: 1.2 nM

COC[C@H]1CO[C@@H](C(=O)N(C2CC2)[C@H](C)c2cn(CCCNC(=O)OC)c(-c3ccc(F)cc3)n2)CN1 [Example 279]
IC50: 0.5 nM

COC(=O)NCCCn1cc([C@@H](C)N(C(=O)[C@H]2CN[C@@H](C)CO2)C2CC2)nc1-c1ccc(F)cc1 [Example 280]
IC50: 0.3 nM

COC(=O)NCCCc1cc([C@@H](C)N(C(=O)[C@H]2CNCCO2)C2CC2)sc1-c1ccccc1-c1cc(O)no1 [Example 281]
IC50: 0.4 nM

COC(=O)NCCCn1cc([C@@H](C)N(C(=O)[C@H]2CNC[C@@H](C)O2)C2CC2)nc1-c1ccc(F)cc1 [Example 282]
IC50: 0.6 nM

COC[C@H]1CO[C@@H](C(=O)N(C2CC2)[C@H](C)c2cc(CCCNC(=O)OC)n(-c3ccccc3)n2)CN1 [Example 283]
IC50: 0.9 nM

COC(=O)NCCCc1cc([C@@H](C)N(C(=O)[C@H]2CNCCO2)C2CC2)sc1-c1ccccc1CNS(=O)(=O)C(F)(F)F [Example 284]
IC50: 1.3 nM

COC[C@@H]1CNC[C@H](C(=O)N(C2CC2)[C@H](C)c2cc(CCCNC(=O)OC)n(-c3ccccc3)n2)O1 [Example 285]
IC50: 0.6 nM

COC(=O)NCCCc1cc([C@@H](C)N(C(=O)[C@H]2CNCCO2)C2CC2)sc1-c1ccccc1CNS(=O)(=O)CC(F)(F)F [Example 286]
IC50: 0.4 nM

COC(=O)NCCCc1cc([C@@H](C)N(C(=O)[C@H]2CNCCO2)C2CC2)sc1-c1ccccc1C(=O)NS(C)(=O)=O [Example 287]
IC50: 0.8 nM

COC(=O)NCCCc1cc([C@@H](C)N(C(=O)[C@H]2CNCCO2)C2CC2)sc1-c1ccccc1C(=O)NS(=O)(=O)c1ccccc1 [Example 288]
IC50: 0.4 nM
